42 compounds from US6620828B2, “Thiazole compounds and pharmaceutical compositions for inhibiting protein kinases and methods for their use” (Agouron Pharmaceuticals, Inc., priority 1999, dated 2003) can be followed below.

Read-outs that look alike come from different tables or passages of the source.

In this assay the test system is human umbilical vein endothelial cells (HUVEC). Kind of assay: HUVEC proliferation assay. In kind it is cell-based. To be noted: for inhibition at 0.001 µM / inhibition at 0.01 µM / inhibition at 0.05 µM / inhibition at 0.15 µM: Homo sapiens, HUVEC; for inhibition at 0.001 µM: 1 nM; for inhibition at 0.01 µM: 10 nM; for inhibition at 0.05 µM: 50 nM. How it is done: HUVEC Proliferation Assay
This assay determines the ability of a test compound to inhibit the growth factor-stimulated proliferation of human umbilical vein endothelial cells (“HUVEC”). HUVEC cells (passage 3-4, Clonetics, Corp.) were thawed into EGM2 culture medium (Clonetics Corp) in T75 flasks. Fresh EGM2 medium was added to the flasks 24 hours later. Four or five days later, cells were exposed to another culture medium (F12K medium supplemented with 10% fetal bovine serum (FBS), 60 μg/ml endothelial cell growth supplement (ECGS), and 0.1 mg/ml heparin). Exponentially-growing HUVEC cells were used in experiments thereafter. Ten to twelve thousand HUVEC cells were plated in 96-well dishes in 100 μl of rich, culture medium (described above). The cells were allowed to attach for 24 hours in this medium. The medium was then removed by aspiration and 105 μl of starvation media (F12K+1% FBS) was added to each well. After 24 hours, 15 μl of test agent dissolved in 1% DMSO in starvation medium or this vehicle alone was added into each treatment well; the final DMSO concentration was 0.1%. One hour later, 30 μl of VEGF (30 ng/ml) in starvation media was added to all wells except those containing untreated controls; the final VEGF concentration was 6 ng/ml. Cellular proliferation was quantified 72 hours later by MTT dye reduction, at which time cells were exposed for 4 hours MTT (Promega Corp.). Dye reduction was stopped by addition of a stop solution (Promega Corp.) and absorbance at 595 λ was determined on a 96-well spectrophotometer plate reader.
IC50 values were calculated by curve-fitting the response of A^595 to various concentrations of the test agent; typically, seven concentrations separated by 0.5 log were employed, with triplicate wells at each concentration. For screening compound library plates, one or two concentrations (one well per concentration) were employed, and the % inhibition was calculated by the following formula:
% inhibition=(control−test) divided by (control−starvation) […]
control=A^595 when VEGF is present without test agent test=A^595 when VEGF is present with test agent starvation=A^595 when VEGF and test agent are both absent.

Setting [1] is: table following Table II (untitled), crude combinatorial library.
The mark [2] stands for this setting: table following Table II (untitled), crude combinatorial library, read-out: % inhibition @ 10 nM.
Where [3] appears, read: crude combinatorial urea library, read-out: Inhibition of HUVEC Proliferation % inhibition @ 10 nM.
The mark [4] stands for this setting: crude combinatorial urea library, read-out: Inhibition of HUVEC Proliferation % inhibition @ 50 nM.
[5] abbreviates: Table I screening results, 150 nM, crude combinatorial amide library.
[6] abbreviates: Table II screening results, crude combinatorial amide library.
Where [7] appears, read: Table II screening results, crude combinatorial amide library, read-out: % inhibition @ 10 nM.
Where [8] appears, read: Inhibition of HUVEC Proliferation, crude combinatorial urea library, read-out: % inhibition @ 50 nM.
Where [9] appears, read: Inhibition of HUVEC Proliferation, crude combinatorial urea library, read-out: Inhibition @ 50 nM.

As for `COc1cc(Nc2nc(N)c(-c3nc(-c4cc(NC(=O)/C=C/C(=O)NCC5CC5)ccc4C)no3)s2)cc(OC)c1OC`, under setting [1], the inhibition at 0.001 µM amounted to 39%. Also, the inhibition at 0.01 µM under setting [2] was 5%. Consider `COc1cccc(C(=O)Nc2cccc(-c3csc(-c4sc(NC(=O)N[C@H](CO)Cc5c[nH]cn5)nc4N)n3)c2)c1`, for which the inhibition at 0.01 µM under setting [3] was 16%. Further, under setting [4], the inhibition at 0.05 µM is 19%. For `COc1cc(Nc2nc(N)c(-c3nc(-c4cccc(NC(=O)c5ccc6c(c5)C(=O)c5ccccc5-6)c4)cs3)s2)cc(OC)c1OC`, the inhibition at 0.15 µM under setting [5] is -4%. With `COc1cc(Nc2nc(N)c(-c3nc(-c4cccc(NC(=O)C(C5CCCCC5)C5CCCCC5)c4)cs3)s2)cc(OC)c1OC`, the “% inhibition @ 150 nM” value under setting [5] came to 0%. `CCn1nc(C)cc1C(=O)Nc1cccc(-c2csc(-c3sc(NC(=O)NC)nc3N)n2)c1`: the inhibition at 0.001 µM under setting [6] is 17%. Also, the inhibition at 0.01 µM under setting [7] was determined as 41%. On to `COc1cc(Nc2nc(N)c(-c3nc(-c4cc(NC(=O)CCN5CCCCC5)ccc4C)no3)s2)cc(OC)c1OC`, for which the inhibition at 0.001 µM under setting [1] amounted to 3%. Further, the inhibition at 0.01 µM under setting [2] worked out at 28%. Turning to `COc1cccc(C(=O)Nc2cccc(-c3csc(-c4sc(NC(=O)NCCc5cccnc5)nc4N)n3)c2)c1`, under setting [3], the inhibition at 0.01 µM worked out at 35%. Also, under setting [4], the inhibition at 0.05 µM came to 97%.

For `CCN(CC)CCNC(=O)Nc1nc(N)c(-c2nc(-c3cc(NC(=O)c4cccc(OC)c4)c(F)cc3F)cs2)s1`, under setting [8], the inhibition at 0.05 µM is 40%. With `COc1cccc(C(=O)Nc2cccc(-c3csc(-c4sc(NC(=O)NCCc5ccncc5)nc4N)n3)c2)c1`, the inhibition at 0.01 µM under setting [3] was -5%. The inhibition at 0.05 µM under setting [4] was found to be 97%. For `COc1cccc(C(=O)Nc2cccc(-c3csc(-c4sc(NC(=O)NCc5ccncc5)nc4N)n3)c2)c1` the same measures were -2% and 116%. Take `COc1cccc(C(=O)Nc2cc(-c3noc(-c4sc(NC(=O)NCC(C)(C)C)nc4N)n3)c(F)cc2F)c1`: under setting [9], the inhibition at 0.05 µM is 55%. Consider `COc1cccc(C(=O)Nc2cc(-c3noc(-c4sc(NC(=O)NCCCN(C)c5ccccc5)nc4N)n3)c(F)cc2F)c1`, for which the inhibition at 0.05 µM under setting [9] is 84%. For the compound `COc1cccc(C(=O)Nc2cccc(-c3csc(-c4sc(NC(=O)NCC(N)=O)nc4N)n3)c2)c1`, the inhibition at 0.01 µM under setting [3] is 12%. Also, the inhibition at 0.05 µM under setting [4] worked out at 25%.

Consider `CNC(=O)Nc1nc(N)c(-c2nc(-c3cccc(NC(=O)c4cccc5[nH]ccc45)c3)cs2)s1`, for which, under setting [6], the inhibition at 0.001 µM is -3%. Also, the inhibition at 0.01 µM under setting [7] came to 2%. For `COc1cc(Nc2nc(N)c(-c3nc(-c4cccc(NC(=O)c5ccncc5)c4)cs3)s2)cc(OC)c1OC`, the inhibition at 0.15 µM under setting [5] came to 1%.

For `COc1cccc(C(=O)Nc2cc(-c3csc(-c4sc(NC(=O)NCc5ccccn5)nc4N)n3)c(F)cc2F)c1` [drawing 705], the inhibition at 0.05 µM under setting [8] was 118%. For the compound `CCCCN(CCCC)CCCNC(=O)Nc1nc(N)c(-c2nc(-c3cccc(NC(=O)c4cccc(OC)c4)c3)cs2)s1`, the inhibition at 0.01 µM under setting [3] is -5%. Further, the inhibition at 0.05 µM under setting [4] worked out at 62%. For the compound `COc1cccc(C(=O)Nc2cc(-c3csc(-c4sc(NC(=O)N[C@@H](CC(N)=O)C(N)=O)nc4N)n3)c(F)cc2F)c1`, under setting [8], the inhibition at 0.05 µM was 32%. As to `CCN(CC)CCCC(C)NC(=O)Nc1nc(N)c(-c2nc(-c3cccc(NC(=O)c4cccc(OC)c4)c3)cs2)s1` (stereo not drawn), the inhibition at 0.01 µM under setting [3] was 7%. Besides, under setting [4], the inhibition at 0.05 µM came out at 68%.

Regarding `COc1cc(Nc2nc(N)c(-c3nc(-c4cccc(NC(=O)C#Cc5ccccc5)c4)cs3)s2)cc(OC)c1OC`, the inhibition at 0.15 µM under setting [5] was -25%. Turning to `COc1cc(Nc2nc(N)c(-c3nc(-c4cccc(NC(=O)C5(c6ccccc6)CC5)c4)cs3)s2)cc(OC)c1OC`, the inhibition at 0.15 µM under setting [5] came out at 11%. `COc1cc(Nc2nc(N)c(-c3nc(-c4cccc(NC(=O)c5ccc(N6N=C(C)CC6=O)cc5)c4)cs3)s2)cc(OC)c1OC`: under setting [5], the inhibition at 0.15 µM worked out at 0%. Turning to `COc1cc(CC(=O)Nc2cccc(-c3csc(-c4sc(Nc5cc(OC)c(OC)c(OC)c5)nc4N)n3)c2)cc(OC)c1OC`, the inhibition at 0.15 µM under setting [5] came out at 29%. As for `COc1cccc(C(=O)Nc2cccc(-c3csc(-c4sc(NC(=O)NCCCCCCN(C)C)nc4N)n3)c2)c1`, under setting [3], the inhibition at 0.01 µM is 32%. Also, the inhibition at 0.05 µM under setting [4] stood at 24%. With `CNC(=O)Nc1nc(N)c(-c2nc(-c3cccc(NC(=O)CCCN(C)C)c3)cs2)s1`, under setting [6], the inhibition at 0.001 µM was -12%. Also, the inhibition at 0.01 µM under setting [7] was -40%.

For the compound `COc1cccc(C(=O)Nc2cccc(-c3csc(-c4sc(NC(=O)NCC#N)nc4N)n3)c2)c1`, the inhibition at 0.01 µM under setting [3] is -3%. Further, under setting [4], the inhibition at 0.05 µM came out at 3%. Consider `COc1cc(Nc2nc(N)c(-c3nc(-c4cccc(NC(=O)COc5ccccc5)c4)cs3)s2)cc(OC)c1OC` [drawing 868], for which, under setting [5], the inhibition at 0.15 µM was found to be 10%. In the case of `COc1cccc(C(=O)Nc2cc(-c3noc(-c4sc(NC(=O)NCCc5ccc(N)cc5)nc4N)n3)c(F)cc2F)c1`, under setting [9], the inhibition at 0.05 µM amounted to 88%. Turning to `CNC(=O)Nc1nc(N)c(-c2nc(-c3cccc(NC(=O)c4ccccc4C(C)C)c3)cs2)s1`, the inhibition at 0.001 µM under setting [6] is -9%. The inhibition at 0.01 µM under setting [7] turned out to be 26%.

On to `COc1cc(Nc2nc(N)c(-c3nc(-c4cccc(NC(=O)c5ccc(CCCl)cc5)c4)cs3)s2)cc(OC)c1OC`, for which the inhibition at 0.15 µM under setting [5] was 59%. Take `COc1cccc(C(=O)Nc2cc(-c3noc(-c4sc(NC(=O)NCCCCCCN(C)C)nc4N)n3)c(F)cc2F)c1`: the inhibition at 0.05 µM under setting [9] is -6%.

With `COc1cccc(C(=O)Nc2cc(-c3csc(-c4sc(NC(=O)NCCCC(=O)O)nc4N)n3)c(F)cc2F)c1`, the inhibition at 0.05 µM under setting [8] was found to be 40%.

For the compound `COc1cccc(C(=O)Nc2cccc(-c3csc(-c4sc(NC(=O)NC5CCN(Cc6ccccc6)CC5)nc4N)n3)c2)c1`, the inhibition at 0.01 µM under setting [3] is -22%. Besides, the inhibition at 0.05 µM under setting [4] came to 23%. Take `COc1cccc(C(=O)Nc2cc(-c3noc(-c4sc(NC(=O)NCc5ccc(N)cc5)nc4N)n3)c(F)cc2F)c1`: the inhibition at 0.05 µM under setting [9] is 82%.

Turning to `COc1cccc(C(=O)Nc2cc(-c3noc(-c4sc(NC(=O)NCCc5cncn5C)nc4N)n3)c(F)cc2F)c1`, under setting [9], the inhibition at 0.05 µM turned out to be 10%.

On to `COc1cc(Nc2nc(N)c(-c3nc(-c4cc(NC(=O)c5cc(C)n(C)n5)ccc4C)no3)s2)cc(OC)c1OC`, for which the inhibition at 0.001 µM under setting [1] turned out to be 25%. For the same compound, the inhibition at 0.01 µM under setting [2] was 99%. As for `CCCN(CCC)CC(=O)Nc1ccc(C)c(-c2noc(-c3sc(Nc4cc(OC)c(OC)c(OC)c4)nc3N)n2)c1`, the inhibition at 0.001 µM under setting [1] came to 6%. In addition, under setting [2], the inhibition at 0.01 µM amounted to 0%. In the case of `CNC(=O)Nc1nc(N)c(-c2nc(-c3cccc(NC(=O)CC(C)(C)NC(C)=O)c3)cs2)s1`, under setting [6], the inhibition at 0.001 µM was determined as 4%. The inhibition at 0.01 µM under setting [7] was -11%.

For the compound `COc1cccc(C(=O)Nc2cccc(-c3csc(-c4sc(NCCC(=O)NCC(=O)O)nc4N)n3)c2)c1`, under setting [3], the inhibition at 0.01 µM was -34%. Also, the inhibition at 0.05 µM under setting [4] amounted to 7%. Consider `CNC(=O)Nc1nc(N)c(-c2nc(-c3cc(NC(=O)c4cccc(OC)c4)c(F)cc3F)cs2)s1`, for which the inhibition at 0.05 µM under setting [8] stood at 99%. The same measure, in the same setting: in the case of `COc1cccc(C(=O)Nc2cc(-c3csc(-c4sc(NC(=O)NCCCN(C)C)nc4N)n3)c(F)cc2F)c1` it was 72%. As to `COc1cc(Nc2nc(N)c(-c3nc(-c4cc(NC(=O)C5CC6C=CCC(C6)C5)ccc4C)no3)s2)cc(OC)c1OC` (stereo not drawn), the inhibition at 0.001 µM under setting [1] came to 18%. Further, the inhibition at 0.01 µM under setting [2] is 18%.
